The subject of data set [1] is G-361 cells. The arrangement: method as in list in b5. The conditions noted are these: Figure 1, representative BoA derivatives; ref list in b5; cited from earlier work.
Data set [2] relates to LNCaP cells. The arrangement: method as in list in b5. The conditions noted are these: Figure 1, representative BoA derivatives; ref list in b5; cited from earlier work.
Data set [3] concerns LNCaP prostate cancer cells. Set-up: method as in Saxena et al., 2006. The conditions noted are these: 100 μM; ref Saxena et al., 2006; cited from earlier work.
Data set [4] relates to normally proliferating fibroblast cells. Set-up: method as in Saxena et al., 2006. Conditions: ref Saxena et al., 2006; cited from earlier work.
Data set [5] relates to MCF-7 breast cancer cells. Kind of data set: MTT cell proliferation with FXR antagonist DY268. It is filed as cell-based, human. Conditions: MCF-7, BoA2C (8 μM) + DY268 (10 μM), 24, 48 and 72 h. The procedure:
The antitumor activity was assessed by MTT assay, as previously reported ([Fang et al., 2018]). Each tested compound and positive control drugs were dissolved in DMSO and diluted with the medium to the test concentrations, and the final concentration of DMSO in the culture medium was controlled at less than 0.5% (v/v). Briefly, cells were cultured at 37°C and dispersed in replicates in 96-well plates with HepG2, Bel-7402, HeLa, MCF-7 and MDCK for 24 h. Fresh medium along with compounds (BoAA-BoAE, BoA2A-BoA2G, BoA3A-BoA3G, BoA4A-BoA4G) at different concentrations was then added to individual wells and incubated for 72 h, with BoA and DDP as the positive control. Experiments on FXR expression were separated into three groups: Control (PBS), BoA2C (8 μM), and BoA2C (8 μM) + DY268 (10 μM) ([Giordano et al., 2016]), with three repeating wells in each. […] After 72 h, the cell was incubated with MTT solution (0.5 mg/ml) for an additional 4 h at 37°C. The produced formazan crystals were solubilized with DMSO, and the optical density of solution was measured at 570 nm using a plate reader (BIORAD 550 spectrophotometer, Bio-rad Life Science Development Ltd., Beijing, China). Wells without drugs were used to be blanks. The IC50 values were defined as the concentration of compounds that produced a 50% proliferation inhibition of surviving cells and calculated using the Graph Pad Prism 5. […]

Data set [6] concerns A375 cells. Set-up: method as in list in b5. Conditions: Figure 1, representative BoA derivatives; ref list in b5; cited from earlier work.
For data set [7], the system named is MCF-7. In words: MTT assay, MCF-7 cells. Conditions: Homo sapiens, MCF7, 72 h incubation, read-out: Half maximal inhibitory concentration (IC50) values, MCF-7. It is filed as cell-based, human. The text has this: (§1) The human hepatocellular carcinoma cell line (HepG2), human hepatocellular carcinoma cell line (Bel-7402), human cervical cancer cell line (Hela), human breast adenocarcinoma cell line (MCF-7) and Madin-Darby canine kidney cell line (MDCK) were obtained from the Chinese Academy of Medical Sciences and Peking Union Medical College. Cultures were maintained as monolayer in RPMI-1640/DMEM supplemented with 10% (v/v) fetal bovine serum (FBS) and 1% (v/v) penicillin/streptomycin (Thermo Technologies, New York, NY, United States) under a humidified atmosphere containing 5% CO2 at 37°C. The BoA derivatives and positive control drugs (BoA and DDP) under study were dissolved in DMSO (Sigma, St. Louis, MO, United States) and added at required concentrations to the cell culture. Cells incubated without the preparations served as the control.
(§2) The antitumor activity was assessed by MTT assay, as previously reported ([Fang et al., 2018]). Each tested compound and positive control drugs were dissolved in DMSO and diluted with the medium to the test concentrations, and the final concentration of DMSO in the culture medium was controlled at less than 0.5% (v/v). Briefly, cells were cultured at 37°C and dispersed in replicates in 96-well plates with HepG2, Bel-7402, HeLa, MCF-7 and MDCK for 24 h. Fresh medium along with compounds (BoAA-BoAE, BoA2A-BoA2G, BoA3A-BoA3G, BoA4A-BoA4G) at different concentrations was then added to individual wells and incubated for 72 h, with BoA and DDP as the positive control. Experiments on FXR expression were separated into three groups: Control (PBS), BoA2C (8 μM), and BoA2C (8 μM) + DY268 (10 μM) ([Giordano et al., 2016]), with three repeating wells in each. In separate wells, BoA2C and DY268 were introduced and cultured for 72 h. After 72 h, the cell was incubated with MTT solution (0.5 mg/ml) for an additional 4 h at 37°C. The produced formazan crystals were solubilized with DMSO, and the optical density of solution was measured at 570 nm using a plate reader (BIORAD 550 spectrophotometer, Bio-rad Life Science Development Ltd., Beijing, China). Wells without drugs were used to be blanks. The IC50 values were defined as the concentration of compounds that produced a 50% proliferation inhibition of surviving cells and calculated using the Graph Pad Prism 5. The inhibitory rate was calculated in the following Equation 1, where OD is the optical density: % inhibition=[1−(OD Sample group−OD Blank group)/(OD Control group−OD Blank group)]×100% (1)
On the technique in general: Formazan colour is commonly taken as a measure of viable cells.

Data set [8] deals with Bel-7402. Kind of data set: MTT assay, Bel-7402 cells. The class given is cell-based, human. The conditions noted are these: Homo sapiens, Bel-7402, 72 h incubation, read-out: Half maximal inhibitory concentration (IC50) values, Bel-7402.
Source text: as §1, §2

In data set [9] the test system is HepG2. Kind of data set: MTT assay, HepG2 cells. The class given is cell-based, human. The conditions noted are these: Homo sapiens, HepG2, 72 h incubation, read-out: Half maximal inhibitory concentration (IC50) values, HepG2.
Source text: as §1, §2

Data set [10] deals with MDCK. Kind of data set: MTT assay, MDCK normal cell line. It is filed as cell-based, canine. Conditions: Canis lupus familiaris, MDCK, 72 h incubation, normal cell line, read-out: Half maximal inhibitory concentration (IC50) values, MDCK.
Source text: as §1, §2

Data set [11] deals with Hela. In words: MTT assay, Hela cells. The class given is cell-based, human. Conditions: Homo sapiens, HeLa, 72 h incubation, read-out: Half maximal inhibitory concentration (IC50) values, Hela.
Source text: as §1, §2

On to `C=C(C)C1CCC2(C(=O)OC3OC(COC(C)=O)C(OC(C)=O)C(OC(C)=O)C3OC(C)=O)CCC3(C)C(CCC4C5(C)CCC(O)C(C)(C)C5CCC43C)C12` (stereo not drawn) [Compound 2], for which the IC50 in data set [1] was 3.4 µM.
On to `C=C(C)C1CC[C@]2(C(=O)NCCCCC(NC(=O)OC(C)(C)C)C(=O)O)CC[C@]3(C)[C@H](CC[C@@H]4[C@@]5(C)CCC(=O)C(C)(C)[C@@H]5CC[C@]43C)[C@@H]12` (stereo partly drawn) [Compound 1], for which, in data set [2], the IC50 was 10 µM.
Turning to `C=C(C)C1CC[C@]2(C(=O)NCCCCC(NC(=O)OC(C)(C)C)C(=O)O)CC[C@]3(C)[C@H](CC[C@@H]4[C@@]5(C)CCC(=O)C(C)(C)[C@@H]5CC[C@]43C)[C@@H]12` (stereo partly drawn) [boc-lysinated-betulonic acid], the “inhibition of LNCaP prostate cancer cells” value in data set [3] is listed as 95.7%. The “effect on normally proliferating fibroblast cells” value in data set [4] is “little effect on normally proliferating fibroblast cells”.
In the case of `COc1cccc(Cn2cc(C(=O)Nc3ccc(C)c(S(=O)(=O)N4CCOCC4)c3)c(-c3ccc(C)cc3)n2)c1` [DY268], in [5], the “effect of DY268 on BoA2C antiproliferative activity” value is reported as “reversed BoA2C inhibitory impact on the growth of MCF-7 breast cancer cells”.
As to `C=C(C)[C@@H]1CC[C@]2(C(=O)Nc3cncc4ccccc34)CC[C@]3(C)C(CCC4[C@@]5(C)CC[C@H](OC(C)=O)C(C)(C)C5CC[C@]43C)C12` (stereo partly drawn) [Compound 3], the IC50 in [6] is 1.48 µM.
What is called melting point is the temperature, or range, at which the solid turns liquid. As to `C=C(C)[C@@H]1CC[C@]2(C(=O)OCc3cncc(C)n3)CC[C@]3(C)[C@H](CC[C@@H]4[C@@]5(C)CCC(=O)C(C)(C)[C@@H]5CC[C@]43C)[C@@H]12` [BoAD, (6-Methylpyrazin-2-yl)-methyl-3-oxolup-20(29)-en-28-oate], the melting point fell in the range of 119 to 121 °C. Besides, the IC50 in [7] was found to be 8.24 ± 0.87 µM. The IC50 in data set [8] came to 7.51 ± 1.4 µM. Further, the IC50 in data set [9] worked out at 5.17 ± 1.33 µM. In [10], the IC50 was above 30 µM. In data set [11], the IC50 is 10.7 ± 0.32 µM.
`C=C(C)[C@@H]1CC[C@]2(C(=O)OCCOC(=O)c3cnccn3)CC[C@]3(C)[C@H](CC[C@@H]4[C@@]5(C)CCC(=O)C(C)(C)[C@@H]5CC[C@]43C)[C@@H]12` [BoA2A, (Pyrazin-2-acyloxy)-ethyl-3-oxolup-20(29)-en-28-oate] came in with a melting point of 85 to 87 °C. Besides, the IC50 in [7] came to 9.86 ± 0.36 µM. Besides, in [8], the IC50 worked out at 8.76 ± 0.84 µM. Moreover, the IC50 in data set [9] stood at 13.7 ± 0.25 µM. In data set [10], the IC50 was above 30 µM. The IC50 in [11] came out at 25 ± 0.97 µM.
Consider `C=C(C)[C@@H]1CC[C@]2(C(=O)OCCCOC(=O)c3nccnc3C)CC[C@]3(C)[C@H](CC[C@@H]4[C@@]5(C)CCC(=O)C(C)(C)[C@@H]5CC[C@]43C)[C@@H]12` [BoA3B, (3-Methylpyrazin-2-acyloxy)-propyl-3-oxolup-20(29)-en-28-oate], for which the melting point fell in the range of 54 to 55 °C. Also, the IC50 in data set [7] is 27.9 ± 1.06 µM. Besides, in data set [8], the IC50 was 14.2 ± 2.1 µM. Further, in [9], the IC50 turned out to be 13.2 ± 1.2 µM. In data set [10], the IC50 was above 30 µM. Also, the IC50 in [11] stood at 15.7 ± 2.15 µM.
On to `C=C(C)[C@@H]1CC[C@]2(C(=O)OCCCCOC(=O)c3nc(C)c(C)nc3C)CC[C@]3(C)[C@H](CC[C@@H]4[C@@]5(C)CCC(=O)C(C)(C)[C@@H]5CC[C@]43C)[C@@H]12` [BoA4E, (3,5,6-Trimethylpyrazin-2-acyloxy)-butyl-3-oxolup-20(29)-en-28-oate], for which the melting point was in the range of 124 to 126 °C. For the same compound, the IC50 in data set [7] was above 30 µM. For the same compound, in data set [8], the IC50 is above 30 µM. The IC50 in [9] is above 30 µM. Further, in [10], the IC50 was above 30 µM. Moreover, the IC50 in [11] is above 30 µM.
For `C=C(C)[C@@H]1CC[C@]2(C(=O)OCCCOC(=O)c3cncc(C)n3)CC[C@]3(C)[C@H](CC[C@@H]4[C@@]5(C)CCC(=O)C(C)(C)[C@@H]5CC[C@]43C)[C@@H]12` [BoA3D, (6-Methylpyrazin-2-acyloxy)-propyl-3-oxolup-20(29)-en-28-oate], the melting point was 59 to 60 °C. The IC50 in data set [7] was determined as 5.6 ± 0.25 µM. Further, the IC50 in [8] came out at 6.42 ± 0.66 µM. The IC50 in [9] worked out at 8.65 ± 0.6 µM. Besides, the IC50 in [10] is 17 ± 3.01 µM. For the same compound, the IC50 in [11] was 9.5 ± 0.28 µM.
As for `C=C(C)[C@@H]1CC[C@]2(C(=O)OCCCOC(=O)c3cnccn3)CC[C@]3(C)[C@H](CC[C@@H]4[C@@]5(C)CCC(=O)C(C)(C)[C@@H]5CC[C@]43C)[C@@H]12` [BoA3A, (Pyrazin-2-acyloxy)-propyl-3-oxolup-20(29)-en-28-oate], the melting point fell in the range of 74 to 76 °C. In addition, in [7], the IC50 stood at 6.85 ± 1.82 µM. Besides, in [8], the IC50 turned out to be 6.09 ± 0.12 µM. For the same compound, the IC50 in data set [9] came to 4.82 ± 0.3 µM. Besides, the IC50 in [10] was above 30 µM. For the same compound, the IC50 in data set [11] amounted to 20.4 ± 0.56 µM.
For the compound `C=C(C)[C@@H]1CC[C@]2(C(=O)OCc3nccnc3C)CC[C@]3(C)[C@H](CC[C@@H]4[C@@]5(C)CCC(=O)C(C)(C)[C@@H]5CC[C@]43C)[C@@H]12` [BoAB, (3-Methylpyrazin-2-yl)-methyl-3-oxolup-20(29)-en-28-oate], the melting point lay within 80 to 82 °C. In [7], the IC50 amounted to 10 ± 0.26 µM. In addition, the IC50 in [8] was 7.73 ± 1.92 µM. Also, the IC50 in [9] was 11.1 ± 0.27 µM. Also, the IC50 in [10] is above 30 µM. The IC50 in [11] turned out to be 11.8 ± 0.58 µM.
Take `C=C(C)[C@@H]1CC[C@]2(C(=O)OCCOC(=O)c3nccnc3C)CC[C@]3(C)[C@H](CC[C@@H]4[C@@]5(C)CCC(=O)C(C)(C)[C@@H]5CC[C@]43C)[C@@H]12` [BoA2B, (3-Methylpyrazin-2-acyloxy)-ethyl-3-oxolup-20(29)-en-28-oate]: the melting point lay in the range of 60 to 62 °C. The IC50 in [7] was above 30 µM. In [8], the IC50 turned out to be 10.1 ± 1.4 µM. For the same compound, in data set [9], the IC50 amounted to 13.4 ± 1.82 µM. The IC50 in [10] is above 30 µM. In addition, in [11], the IC50 is 15.5 ± 0.81 µM.
With `C=C(C)[C@@H]1CC[C@]2(C(=O)OCCCOC(=O)c3ccncn3)CC[C@]3(C)[C@H](CC[C@@H]4[C@@]5(C)CCC(=O)C(C)(C)[C@@H]5CC[C@]43C)[C@@H]12` [BoA3F], the melting point is 50 to 52 °C. For the same compound, in [7], the IC50 was above 30 µM. Besides, the IC50 in [8] is 22.3 ± 5.85 µM. Moreover, in [9], the IC50 was above 30 µM. In addition, the IC50 in data set [10] came out at 17.9 ± 0.82 µM. In addition, the IC50 in data set [11] is 21.1 ± 6.66 µM.

Values taken from publication PMC9486541, “Design, synthesis and cytotoxic evaluation of novel betulonic acid-diazine derivatives as potential antitumor agents” (Frontiers in Chemistry, 2022).
